Assay results: patent US9120820B2, “Fluorescent molecular probes for use in assays that measure test compound competitive binding with SAM-utilizing proteins” (CAYMAN CHEMICAL COMPANY, INCORPORATED, priority 2011, dated 2015)

Tested on: MLL
Test: High-throughput FP Sinefungin Probe 1A binding assay adapted for MLL
Details: MLL 1 μM, FIG. 10
Description: Adaptation for GLP and MLL: Assays for probe binding to two other methyltransferases (GLP and MLL) were also adapted to high throughput format. The assay conditions were identical to the SET7/9 assay, however the protein concentration was increased to raise the signal:noise ratio for the assay. For GLP, the protein concentration was raised to 500 nM, while the concentration of MLL was raised to 1 μM. Data were analyzed in GraphPad Prism (v. 5.04) and/or GeneData (v. 9.01).
This assay was also adapted for high throughput format against the methyltransferase MLL (Cayman Catalog Item #10658). Relevant data are illustrated in FIG. 10: The fluorescence polarization (FP) Sinefungin Probe 1A binding assay was adapted to a high-throughput inhibitor screening format for both A) MLL and B) SET7/9. The probe polarization is increased by >120 mp by binding to SET7/9 (30 nM) and by >145 mp by binding to MLL (1 μM). […] Sixty-four replicates were tested for each condition for SET7/9, sixteen replicates were tested for MLL. Z′ factor scores were >0.5 for all conditions tested (SET7/9:sinefungin: 0.71; SAM: 0.72; no SET7/9: 0.69; MLL:sinefungin: 0.72).

Nc1ncnc2c1ncn2[C@@H]1O[C@H](C[C@@H](N)CC[C@H](N)C(=O)O)[C@@H](OCc2cnnn2CCCCCCNC(=O)OC2CCN(C(=O)c3ccccc3C3=c4cc5c6c(c4Oc4c3cc3c7c4CCCN7CCC3)CCC[N+]=6CCC5)CC2)[C@H]1O [Sinefungin Probe 1A]
increase of probe polarization by binding: > 145 mp
